Source: article PMC9519396, “First thermostable CLIP-tag by rational design applied to an archaeal O^6-alkyl-guanine-DNA-alkyl-transferase” (Computational and Structural Biotechnology Journal, 2022)

Target: T1, SsOGT-MC^8 (Saccharolobus solfataricus, UniProt Q97VW7, G105N/G130P/K110E/M106T/R102A/S100A/S109D/S132L)
T1 construct: gene ogt; TSCLIP; synthetic gene with eight substitutions, Y90 kept; His6-tag, pHTP1, E. coli BL21 Rosetta2 (DE3), Ni-NTA purified; 8AES holds no ligand
T1 sequence (Q97VW7 1-151 S100A/R102A/G105N/M106T/S109D/K110E/G130P/S132L): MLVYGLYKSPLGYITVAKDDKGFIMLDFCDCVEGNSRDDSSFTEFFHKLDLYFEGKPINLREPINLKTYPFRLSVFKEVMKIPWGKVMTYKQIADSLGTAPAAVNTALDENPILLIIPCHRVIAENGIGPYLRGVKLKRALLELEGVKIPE
Assay: competitive labelling with BC-TMR, SDS-PAGE fluorescence gel imaging
Format: biochemical
Description: competitive labelling with BC-TMR, SDS-PAGE fluorescence gel imaging on SsOGT-MC^8

[N-]=[N+]=NCCCCCC(=O)NCc1ccc(COc2nccc(N)n2)cc1 [BC-2]
IC50: 128 ± 31.1 µM
